Measured values as given in patent US8835134B2, “Cycloastragenol monoglucoside, preparation, pharmaceutical composition and application thereof” (Tianjin Institute of Pharmaceutical Research, priority 2007, dated 2014).

Test system: isolated rat heart
Assay: Cardiotonic effects on isolated heart (Langendorff perfusion)
Set-up: species or system Wistar rats
Description: Wistar rats (250-280 g) were anesthetized with chloral hydrate (360 mg/kg intraperitoneally) and heparinized with sodium heparin (1 mg) via sublingual vein. After opening the chest cavity, the hearts were quickly excised and immersed in cold Krebs-Henseleit (K-H) solution. Hearts were retrogradely perfused with 74 centimeters of water pressure via the aorta in a Langendorff apparatus with K-H solution, which was bubbled with a mixture of 95% O2 and 5% CO2. The suture fixed on cardiac apex was connected to a tension transducer which was connected to a polygraph (RM6300, Nihon Kohden, Japan) and a data acquisition workstation (MP150, BIOPAC Systems, USA) to a computer running Acknowledge (version 3.7.1).

CC(C)(O)[C@@H]1CC[C@](C)([C@H]2[C@@H](O)C[C@@]3(C)C4C[C@H](OC5OC(CO)C(O)C(O)C5O)C5C(C)(C)[C@@H](O)CC[C@@]56C[C@@]46CC[C@]23C)O1 (stereo partly drawn) [CMG, Cycloastragenol-6-O-β-D-glucoside]
Contractility Variation (%) (1 × 10^−7 mol/L): 17.08 ± 7.19^++ %
Contractility after administration (1 × 10^−7 mol/L): 2.06 ± 0.59 g
Contractility before administration (1 × 10^−7 mol/L): 1.77 ± 0.52 g
HR Variation (%) (1 × 10^−7 mol/L): −38 ± 22^++ %
HR after administration (1 × 10^−7 mol/L): 92 ± 35 bpm
HR before administration (1 × 10^−7 mol/L): 145 ± 16 bpm
peak derivatives of contractility Variation (%) (1 × 10^−7 mol/L): 18 ± 6^++ %
peak derivatives of contractility Δ T/S after administration (1 × 10^−7 mol/L): 86 ± 13 g/s
peak derivatives of contractility Δ T/S before administration (1 × 10^−7 mol/L): 73 ± 11 g/s
peak derivatives of diastolic force Variation (%) (1 × 10^−7 mol/L): 14 ± 8^+ %
peak derivatives of diastolic force Δ T/S after administration (1 × 10^−7 mol/L): -51 ± 14 g/s
peak derivatives of diastolic force Δ T/S before administration (1 × 10^−7 mol/L): -45 ± 14 g/s
Contractility Variation (%) (1 × 10^−8 mol/L): 7.72 ± 8.03%
Contractility after administration (1 × 10^−8 mol/L): 1.97 ± 0.61 g
Contractility before administration (1 × 10^−8 mol/L): 1.81 ± 0.49 g
HR Variation (%) (1 × 10^−8 mol/L): −17 ± 18%
HR after administration (1 × 10^−8 mol/L): 124 ± 25 bpm
HR before administration (1 × 10^−8 mol/L): 156 ± 51 bpm
peak derivatives of contractility Variation (%) (1 × 10^−8 mol/L): 6 ± 8%
peak derivatives of contractility Δ T/S after administration (1 × 10^−8 mol/L): 76 ± 19 g/s
peak derivatives of contractility Δ T/S before administration (1 × 10^−8 mol/L): 71 ± 15 g/s
peak derivatives of diastolic force Variation (%) (1 × 10^−8 mol/L): 7 ± 9%
peak derivatives of diastolic force Δ T/S after administration (1 × 10^−8 mol/L): -47 ± 16 g/s
peak derivatives of diastolic force Δ T/S before administration (1 × 10^−8 mol/L): -44 ± 15 g/s
Contractility Variation (%) (3 × 10^−8 mol/L): 5.84 ± 2.92%
Contractility after administration (3 × 10^−8 mol/L): 1.92 ± 0.72 g
Contractility before administration (3 × 10^−8 mol/L): 1.83 ± 0.72 g
HR Variation (%) (3 × 10^−8 mol/L): −13 ± 12%
HR after administration (3 × 10^−8 mol/L): 128 ± 23 bpm
HR before administration (3 × 10^−8 mol/L): 150 ± 41 bpm
peak derivatives of contractility Variation (%) (3 × 10^−8 mol/L): 11 ± 9^+ %
peak derivatives of contractility Δ T/S after administration (3 × 10^−8 mol/L): 77 ± 16 g/s
peak derivatives of contractility Δ T/S before administration (3 × 10^−8 mol/L): 70 ± 16 g/s
peak derivatives of diastolic force Variation (%) (3 × 10^−8 mol/L): 10 ± 8%
peak derivatives of diastolic force Δ T/S after administration (3 × 10^−8 mol/L): -51 ± 18 g/s
peak derivatives of diastolic force Δ T/S before administration (3 × 10^−8 mol/L): -46 ± 15 g/s
Contractility (isolated rat heart): increased
Heart rate (isolated rat heart): decreased
Peak derivatives of contractility (isolated rat heart): increased
Peak derivatives of diastolic force (isolated rat heart): increased
cardiotonic effect (conclusion) (isolated rat heart): exhibited cardiotonic effects

CC(C)(O)[C@@H]1CC[C@](C)([C@H]2[C@@H](O)C[C@@]3(C)[C@@H]4C[C@H](O[C@@H]5O[C@H](CO)[C@@H](O)[C@H](O)[C@H]5O)[C@H]5C(C)(C)[C@@H](O[C@@H]6OC[C@@H](O)[C@H](O)[C@H]6O)CC[C@@]56C[C@@]46CC[C@]23C)O1 [astragaloside IV, reference compound]
Contractility Variation (%) (1 × 10^−7 mol/L): 24.56 ± 12.44^++ %
Contractility after administration (1 × 10^−7 mol/L): 1.73 ± 0.42 g
Contractility before administration (1 × 10^−7 mol/L): 1.42 ± 0.41 g
HR Variation (%) (1 × 10^−7 mol/L): −24 ± 17^+ %
HR after administration (1 × 10^−7 mol/L): 117 ± 52 bpm
HR before administration (1 × 10^−7 mol/L): 151 ± 60 bpm
peak derivatives of contractility Variation (%) (1 × 10^−7 mol/L): 21 ± 19^+ %
peak derivatives of contractility Δ T/S after administration (1 × 10^−7 mol/L): 78 ± 14 g/s
peak derivatives of contractility Δ T/S before administration (1 × 10^−7 mol/L): 66 ± 13 g/s
peak derivatives of diastolic force Variation (%) (1 × 10^−7 mol/L): 15 ± 9^+ %
peak derivatives of diastolic force Δ T/S after administration (1 × 10^−7 mol/L): -50 ± 11 g/s
peak derivatives of diastolic force Δ T/S before administration (1 × 10^−7 mol/L): -44 ± 11 g/s
Contractility Variation (%) (1 × 10^−8 mol/L): 6.00 ± 9.25%
Contractility after administration (1 × 10^−8 mol/L): 1.94 ± 0.43 g
Contractility before administration (1 × 10^−8 mol/L): 1.83 ± 0.38 g
HR Variation (%) (1 × 10^−8 mol/L): −6 ± 5%
HR after administration (1 × 10^−8 mol/L): 144 ± 34 bpm
HR before administration (1 × 10^−8 mol/L): 152 ± 30 bpm
peak derivatives of contractility Variation (%) (1 × 10^−8 mol/L): 6 ± 15%
peak derivatives of contractility Δ T/S after administration (1 × 10^−8 mol/L): 81 ± 19 g/s
peak derivatives of contractility Δ T/S before administration (1 × 10^−8 mol/L): 76 ± 18 g/s
peak derivatives of diastolic force Variation (%) (1 × 10^−8 mol/L): 8 ± 8%
peak derivatives of diastolic force Δ T/S after administration (1 × 10^−8 mol/L): -46 ± 9 g/s
peak derivatives of diastolic force Δ T/S before administration (1 × 10^−8 mol/L): -43 ± 10 g/s
Contractility Variation (%) (3 × 10^−8 mol/L): 6.98 ± 8.82%
Contractility after administration (3 × 10^−8 mol/L): 1.88 ± 0.40 g
Contractility before administration (3 × 10^−8 mol/L): 1.78 ± 0.46 g
HR Variation (%) (3 × 10^−8 mol/L): −14 ± 13%
HR after administration (3 × 10^−8 mol/L): 145 ± 65 bpm
HR before administration (3 × 10^−8 mol/L): 167 ± 64 bpm
peak derivatives of contractility Variation (%) (3 × 10^−8 mol/L): 12 ± 7^+ %
peak derivatives of contractility Δ T/S after administration (3 × 10^−8 mol/L): 76 ± 18 g/s
peak derivatives of contractility Δ T/S before administration (3 × 10^−8 mol/L): 69 ± 19 g/s
peak derivatives of diastolic force Variation (%) (3 × 10^−8 mol/L): 10 ± 11%
peak derivatives of diastolic force Δ T/S after administration (3 × 10^−8 mol/L): -45 ± 12 g/s
peak derivatives of diastolic force Δ T/S before administration (3 × 10^−8 mol/L): -41 ± 12 g/s
Contractility (isolated rat heart): increased
Heart rate (isolated rat heart): decreased
Peak derivatives of contractility (isolated rat heart): increased
Peak derivatives of diastolic force (isolated rat heart): increased
